Test results taken from PubChem BioAssay AID1259408 (Genetic Toxicology Data Bank (GENE-TOX), 2018).
Calls of active or inactive are those of the source. No rule for the calls is given here.

System: GENE-TOX genotoxicity assays, various organisms and cells
Test: GENE-TOX mutagenicity studies
Settings: for call: Assay Type: In vivo carcinogenicity studies
[1] = Species/Cell Type: Salmonella typhimurium (one or more of the five standard strains: TA98, TA100, TA1535, TA1537, and TA1538), Assay Type: Histidine reverse gene mutation, Ames assay, Assay Code: SAL+, Evaluation Type: Evaluation A (Pre-1980)
[2] = Species/Cell Type: Nonhuman, Assay Type: Sister-chromatid exchange (SCE) in vitro, Assay Code: SC2+D, Dose Response: With dose response, Evaluation Type: Evaluation B (Post-1980)
[3] = Species/Cell Type: Human lymphocytes, Assay Type: Sister-chromatid exchange (SCE) in vivo, Assay Code: SCY+, Evaluation Type: Evaluation B (Post-1980)
[4] = Species/Cell Type: Saccharomyces cerevisiae, Assay Type: Mitotic recombination or gene conversion, Assay Code: YEH-, Evaluation Type: Evaluation A (Pre-1980)
[5] = Species/Cell Type: Drosophila melanogaster, Assay Type: Sex-linked recessive lethal gene mutation, Assay Code: SRLT, Evaluation Type: Evaluation A (Pre-1980)
[6] = Species/Cell Type: Salmonella typhimurium (one or more of the five standard strains: TA98, TA100, TA1535, TA1537, and TA1538), Assay Type: Histidine reverse gene mutation, Ames assay, Assay Code: SAL-, Evaluation Type: Evaluation A (Pre-1980)
[7] = Species/Cell Type: Vicia faba, Assay Type: Chromosome aberrations, Assay Code: VIC+D, Dose Response: With dose response, Evaluation Type: Evaluation A (Pre-1980)
[8] = Species/Cell Type: Mammalian polychromatic erythrocytes, Assay Type: Micronucleus test, chromosome aberrations, Assay Code: MNTT, Evaluation Type: Evaluation B (Post-1980)
[9] = Species/Cell Type: Rodents, Sex: Male, Assay Type: Dominant lethal test, Assay Code: DLT-, Evaluation Type: Evaluation A (Pre-1980)
[10] = Species/Cell Type: Human lymphocytes, Assay Type: Sister-chromatid exchange (SCE) in vitro, Assay Code: SCL+D, Dose Response: With dose response, Evaluation Type: Evaluation B (Post-1980)
[11] = Species/Cell Type: Human, Assay Type: Sister-chromatid exchange (SCE) in vitro, Assay Code: SC1+D, Dose Response: With dose response, Evaluation Type: Evaluation B (Post-1980)
[12] = Species/Cell Type: Nonhuman, Assay Type: Sister-chromatid exchange (SCE) in vitro, Assay Code: SC2+, Evaluation Type: Evaluation B (Post-1980)
[13] = Species/Cell Type: Bacillus subtilis (H17 vs M45), Assay Type: Rec-assay, spot test, DNA effects (bacterial DNA repair), Assay Code: REW-, Evaluation Type: Evaluation A (Pre-1980)

With `Cc1cccc(OC(=O)N(C)N=O)c1` as the molecule, how does the mutagenic call (Species/Cell Type: Bacillus subtilis (H17 vs M45T), Assay Type: Rec-assay, spot test, DNA effects (bacterial DNA repair), Assay Code: REX+, Evaluation Type: Evaluation A (Pre-1980)) read?
The mutagenic call was “active; positive”.

What about the mutagenic call (Species/Cell Type: Escherichia coli WP2, Assay Type: Tryptophan reverse gene mutation, Assay Code: WP2+, Evaluation Type: Evaluation A (Pre-1980)) of the same molecule?
The mutagenic call was “active; positive”.

For `CCOC(=O)CNC(=O)C=[N+]=[N-]`, which mutagenic call [1] is on record?
The mutagenic call was “active; positive”.

Which mutagenic call [2] does the source give for `CC(=O)C1COC(O)C1C` (stereo unspecified) here?
The mutagenic call was “active; positive”.

For `CC(C(=O)O)c1ccc(C(=O)c2ccccc2)s1` (stereo unspecified), which mutagenic call [3] is on record?
Its mutagenic call is “active; positive”.

How did the mutagenic call (Species/Cell Type: Bacillus subtilis (H17 vs M45), Assay Type: Rec-assay, spot test, DNA effects (bacterial DNA repair), Assay Code: REW+, Evaluation Type: Evaluation A (Pre-1980)) turn out when `C[C@H]1CCCC(=O)CCC/C=C/c2cc(O)cc(O)c2C(=O)O1` was run?
Its mutagenic call is “active; positive”.

What about the mutagenic call [4] of the same molecule?
The mutagenic call was “inactive; negative”.

How did the call (Species/Cell Type: Nonhuman, Assay Code: CCG-, Evaluation Type: Evaluation A (Pre-1980)) turn out when `NCCNc1cccc2ccccc12` was run?
Its call is “inactive; negative”.

Which mutagenic call [5] does the source give for `ClC1=C(Cl)[C@]2(Cl)[C@@H]3[C@H]4C[C@H]([C@@H]5O[C@H]45)[C@@H]3[C@@]1(Cl)C2(Cl)Cl` here?
The mutagenic call was “no conclusion”.

What about the mutagenic call (Species/Cell Type: Hordeum vulgare (barley), Assay Type: Chromosome aberrations, Assay Code: HOCT, Evaluation Type: Evaluation A (Pre-1980)) of the same molecule?
Its mutagenic call is “no conclusion”.

And the mutagenic call (Species/Cell Type: Human diploid fibroblasts, Assay Type: Unscheduled DNA synthesis (UDS) in vitro, DNA effects, Assay Code: UDH-, Evaluation Type: Evaluation A (Pre-1980))?
Its mutagenic call is “inactive; negative”.

And the call (Species/Cell Type: Nonhuman, Assay Code: CCG-L, Evaluation Type: Evaluation A (Pre-1980))?
Its call is “inactive; negative”.

What about the mutagenic call [4] of the same molecule?
The mutagenic call was “inactive; negative”.

What about the mutagenic call [6] of the same molecule?
Its mutagenic call is “inactive; negative”.

And the mutagenic call [7]?
Its mutagenic call is “active; positive”.

What does the source list for `O=S(O)S(=O)O`?
mutagenic call (Species/Cell Type: Human lymphocytes, Assay Type: Sister-chromatid exchange (SCE) in vitro, Assay Code: SCLT, Evaluation Type: Evaluation B (Post-1980)): no conclusion; mutagenic call (Species/Cell Type: Human, Assay Type: Sister-chromatid exchange (SCE) in vitro, Assay Code: SC1T, Evaluation Type: Evaluation B (Post-1980)): no conclusion

With `Nc1ccc2ccccc2c1N=Nc1ccccc1` as the molecule, how does the mutagenic call (Species/Cell Type: Salmonella typhimurium (one or more of the five standard strains: TA98, TA100, TA1535, TA1537, and TA1538), Assay Type: Histidine reverse gene mutation, Ames assay, Assay Code: SALT, Evaluation Type: Evaluation A (Pre-1980)) read?
Its mutagenic call is “no conclusion”.

Which results are given for `COP(=S)(OC)Oc1ccc([N+](=O)[O-])c(C)c1`?
mutagenic call [5]: no conclusion; mutagenic call (Species/Cell Type: Human, Assay Type: Sister-chromatid exchange (SCE) in vitro, Assay Code: SC1+, Evaluation Type: Evaluation B (Post-1980)): active; positive; mutagenic call [8]: no conclusion; mutagenic call [9]: inactive; negative; mutagenic call (Species/Cell Type: Salmonella typhimurium, Assay Type: Forward and reverse gene mutation, host-mediated assay, Assay Code: HMA-, Evaluation Type: Evaluation A (Pre-1980)): inactive; negative

What does the source list for `COc1cccc2c1cc([N+](=O)[O-])c1c(C(=O)O)cc3c(c12)OCO3`?
mutagenic call [10]: active; positive; mutagenic call [11]: active; positive

How did the mutagenic call [1] turn out when `Cn1cncc1[N+](=O)[O-]` was run?
The mutagenic call was “active; positive”.

How did the mutagenic call [1] turn out when `CC1CN(N=O)C(=O)NC1=O` (stereo unspecified) was run?
Its mutagenic call is “active; positive”.

With `C=CCOC(N)=O` as the molecule, how does the mutagenic call (Species/Cell Type: Nonhuman, Assay Type: Sister-chromatid exchange (SCE) in vivo, Assay Code: SC3+D, Dose Response: With dose response, Evaluation Type: Evaluation B (Post-1980)) read?
Its mutagenic call is “active; positive”.

For `O=[N+]([O-])c1ccc(C2CO2)cc1` (stereo unspecified), which mutagenic call [10] is on record?
Its mutagenic call is “active; positive”.

What about the mutagenic call [11] of the same molecule?
Its mutagenic call is “active; positive”.

`O=NN(CCCl)C(=O)NC1CCCCC1` was tested. Which mutagenic call (Species/Cell Type: Chinese hamster lung (V79) cells, Assay Type: Forward gene mutation at the HPRT or ouabain locus, Assay Code: V79+, Evaluation Type: Evaluation A (Pre-1980)) did it give?
Its mutagenic call is “active; positive”.

What about the mutagenic call (Species/Cell Type: Chinese hamster ovary (CHO) cells, Assay Type: Forward gene mutation at the HPRT locus, Assay Code: CHO+, Evaluation Type: Evaluation B (Post-1980)) of the same molecule?
The mutagenic call was “active; positive”.

And the mutagenic call [3]?
The mutagenic call was “active; positive”.

And the call (Species/Cell Type: Nonhuman, Assay Code: CCG+, Evaluation Type: Evaluation A (Pre-1980))?
The call was “active; positive”.

And the mutagenic call [12]?
The mutagenic call was “active; positive”.

And the mutagenic call (Species/Cell Type: Rodents, Sex: Male, Assay Type: Dominant lethal test, Assay Code: DLT+D, Dose Response: With dose response, Evaluation Type: Evaluation A (Pre-1980))?
Its mutagenic call is “active; positive”.

Which mutagenic call (Species/Cell Type: Human, Sex: Male, Assay Type: Sperm morphology, Assay Code: SPH-, Evaluation Type: Evaluation A (Pre-1980)) does the source give for `NCCCC[C@H](N)C(=O)O` here?
The mutagenic call was “inactive; negative”.

How did the mutagenic call (Species/Cell Type: Saccharomyces cerevisiae, Assay Type: Mitotic recombination or gene conversion, Assay Code: YEC-, Evaluation Type: Evaluation A (Pre-1980)) turn out when `CC(C)N1C(=O)c2ccccc2NS1(=O)=O` was run?
The mutagenic call was “inactive; negative”.

Which mutagenic call [8] does the source give for `O=S(O)S(=O)(=O)O` here?
The mutagenic call was “no conclusion”.

And the mutagenic call (Species/Cell Type: Nonhuman, Assay Type: Sister-chromatid exchange (SCE) in vitro, Assay Code: SC2T, Evaluation Type: Evaluation A (Pre-1980))?
The mutagenic call was “no conclusion”.

What about the mutagenic call (Species/Cell Type: Nonhuman, Assay Type: Sister-chromatid exchange (SCE) in vivo, Assay Code: SC3-, Evaluation Type: Evaluation B (Post-1980)) of the same molecule?
The mutagenic call was “inactive; negative”.

Which mutagenic call (Species/Cell Type: Mammalian polychromatic erythrocytes, Assay Type: Micronucleus test, chromosome aberrations, Assay Code: MNTT, Evaluation Type: Evaluation A (Pre-1980)) does the source give for `CNC[C@H](O)c1ccc(O)c(O)c1` here?
The mutagenic call was “no conclusion”.

And the mutagenic call (Species/Cell Type: Mouse, Sex: Male, Assay Type: Sperm morphology, Assay Code: SPI-, Evaluation Type: Evaluation A (Pre-1980))?
The mutagenic call was “inactive; negative”.

Which mutagenic call [13] does the source give for `COc1cc(=O)oc(/C=C/C=C/C=C/C(C)=C/[C@]2(C)O[C@H](C)[C@](C)(O)[C@H]2O)c1C` here?
The mutagenic call was “inactive; negative”.

`CS(=O)(=O)OCCCl` was tested. Which mutagenic call (Species/Cell Type: Arabidopsis species, Assay Type: Gene mutation, Assay Code: ARM+, Evaluation Type: Evaluation A (Pre-1980)) did it give?
Its mutagenic call is “active; positive”.

What about the mutagenic call (Species/Cell Type: Drosophila melanogaster, Assay Type: Sex-linked recessive lethal gene mutation, Assay Code: SRL+, Evaluation Type: Evaluation A (Pre-1980)) of the same molecule?
The mutagenic call was “active; positive”.

What about the mutagenic call (Species/Cell Type: Drosophila melanogaster, Sex: Male, Assay Type: Heritable translocation test, chromosome aberrations, Assay Code: DHT+, Evaluation Type: Evaluation A (Pre-1980)) of the same molecule?
The mutagenic call was “active; positive”.

And the mutagenic call [7]?
The mutagenic call was “active; positive”.

Which mutagenic call [2] does the source give for `COP(=O)(Oc1cc(Cl)c(Br)cc1Cl)c1ccccc1` (stereo unspecified) here?
Its mutagenic call is “active; positive”.

Which mutagenic call (Species/Cell Type: Salmonella typhimurium (one or more of the five standard strains: TA98, TA100, TA1535, TA1537, and TA1538), Assay Type: Histidine reverse gene mutation, Ames assay, Assay Code: SAL+*, Activation: With metabolic activation, Evaluation Type: Evaluation A (Pre-1980)) does the source give for `CC1CN(N=O)C(C)CN1N=O` (stereo unspecified) here?
The mutagenic call was “active; positive”.

How did the mutagenic call [6] turn out when `Oc1ccc2ncccc2c1` was run?
Its mutagenic call is “inactive; negative”.

For `CC(C)Cc1ccc(C(C)C(=O)O)cc1` (stereo unspecified), which mutagenic call [3] is on record?
The mutagenic call was “active; positive”.

How did the mutagenic call (Species/Cell Type: Saccharomyces cerevisiae, Assay Type: Mitotic recombination or gene conversion, Assay Code: YEC+, Evaluation Type: Evaluation A (Pre-1980)) turn out when `Cc1ccc(NC(=O)N(CCCl)N=O)cc1NC(=O)N(CCCl)N=O` was run?
Its mutagenic call is “active; positive”.

For `Cl/C=C(\Cl)C(Cl)Cl`, which mutagenic call [2] is on record?
The mutagenic call was “active; positive”.

How did the mutagenic call (Species/Cell Type: Mouse prostate cells, Assay Type: Cell transformation, Assay Code: CTM-, Evaluation Type: Evaluation A (Pre-1980)) turn out when `c1ccc2c(c1)-c1ccccc1C1OC21` (stereo unspecified) was run?
Its mutagenic call is “inactive; negative”.

And the mutagenic call (Species/Cell Type: Syrian hamster embryo (SHE) cells, Assay Type: Cell transformation, clonal assay, Assay Code: CTC+, Evaluation Type: Evaluation A (Pre-1980))?
Its mutagenic call is “active; positive”.

With `OC[C@@H](O)[C@@H](O)[C@H](O)[C@@H](O)CO` as the molecule, how does the mutagenic call (Species/Cell Type: Drosophila melanogaster, Assay Type: Aneuploidy, whole sex chromosome loss, chromosome aberrations, Assay Code: DAC-M, Evaluation Type: Evaluation A (Pre-1980)) read?
Its mutagenic call is “inactive; negative”.

What about the mutagenic call [5] of the same molecule?
Its mutagenic call is “no conclusion”.

What about the mutagenic call [9] of the same molecule?
The mutagenic call was “inactive; negative”.

With `NC(=O)C#CC(N)=O` as the molecule, how does the mutagenic call [13] read?
Its mutagenic call is “inactive; negative”.

`O=C([O-])[O-].[Cd+2]` was tested. Which mutagenic call [12] did it give?
Its mutagenic call is “active; positive”.
